From patent US20190240225A1, “COMBINATION OF A BCL-2 INHIBITOR AND A MCL-1 INHIBITOR, USES AND PHARMACEUTICAL COMPOSITIONS THEREOF” (LES LABORATOIRES SERVIER, priority 2016, published 2019)
Like-named read-outs stand apart in the source and are kept apart here.

How the values were obtained:
Format in all cases: cell-based
[1] = system: JM1; experiment: CellTiterGlo viability, DLBCL cell line; conditions: single agent, 2 days; for IC50: read-out: Abs IC50
Method: (§6) In addition, all media contained penicillin (100 IU/ml), streptomycin (100 μg/ml) and L-glutamine (2 mM). Unless otherwise mentioned, culture media and supplements were from Amimed/Bioconcept (Allschwil, Switzerland).
(§7) Cell lines were cultured at 37° C. in a humidified atmosphere containing 5% CO2 and expanded in T-75 flasks. In all cases cells were thawed from frozen stocks, expanded through ≥1 passage using appropriate dilutions, counted and assessed for viability using a CASY cell counter (Omni Life Science, Bremen, Germany) prior to plating 25 ul/well at the densities indicated in Table 1 into 384-well plates (Corning). All cell lines were determined to be free of mycoplasma contamination by PCR assay performed at Idexx Radii (Columbia, Mo., USA) and misidentification ruled out by assessment of a panel of 48 Small Nucleotide Polymorphisms (SNPs) at Asuragen (Austin, Tex., USA) or in-house.
(§8) Stock solutions of compounds were prepared at a concentration of 10 mM in DMSO (Sigma) and stored at −20° C. Where necessary to afford a full dose-response curve, the stock solutions were pre-diluted in DMSO to 1′000-fold the desired start concentration (see Table 2). On the day after cell seeding, eight 2.5-fold serial dilutions of each compound were dispensed, either individually or in all possible permutations in a checkerboard fashion, directly into the cell assay plates using a non-contact 300D Digital Dispenser (ILCAN, Mannedorf, Switzerland) as outlined in FIG. 4. The final concentration of DMSO was 0.2% in all wells.
(§9) Effects of the single agents as well as their checkerboard combinations on cell viability were assessed after 2 days of incubation at 37° C./5% CO2 by quantification of cellular ATP levels using CellTiterGlo (Promega, Madison, Wis., USA) at 25 μL reagent/well and n=2 replicate plates per condition. Luminescence was quantified on a M1000 multipurpose platereader (ILCAN, Mannedorf, Switzerland). The number/viability of cells at time of compound addition was likewise assessed and used to assess the degree of the population doubling time of a particular cell line.
(§10) Single agent IC50s were calculated using standard four-parametric curve fitting. […] All calculations were performed using the Combination Analysis Module in-house software. IC50 are defined as the compound concentration at which the CTG signal is reduced to 50% of that measured for the vehicle (DMSO) control.

[2] = system: NU-DHL-1; experiment: CellTiterGlo viability, DLBCL cell line; conditions: single agent, 2 days; for IC50: read-out: Abs IC50
Method: as §6
(§11) Cell lines were cultured at 37° C. in a humidified atmosphere containing 5% CO2 and expanded in T-75 flasks. In all cases cells were thawed from frozen stocks, expanded through ≥1 passage using appropriate dilutions, counted and assessed for viability using a CASY cell counter (Omni Life Science, Bremen, Germany) prior to plating 25 ul/well at the densities indicated in Table 1 into 384-well plates (Corning).
as §8, §9
(§12) Single agent IC50s were calculated using standard four-parametric curve fitting. […] IC50 are defined as the compound concentration at which the CTG signal is reduced to 50% of that measured for the vehicle (DMSO) control.

[3] = system: MOLT-4; experiment: CellTiterGlo viability, T-ALL cell line; conditions: single agent, 72 h
Method: (§1) In addition, all media contained penicillin (100 IU/ml), streptomycin (100 μg/ml) and L-glutamine (2 mM). Cell lines were cultured at 37° C. in a humidified atmosphere containing 5% CO2 and expanded in T-150 flasks. In all cases cells were thawed from frozen stocks, expanded through ≥1 passage using appropriate dilutions, counted and assessed for viability using a CASY cell counter prior to plating 150 ul/well at the densities indicated in Table 9 into 96-well plates. All cell lines were determined to be free of mycoplasma contamination in-house.
(§2) Stock solutions of compounds were prepared at a concentration of 5 mM in DMSO and stored at −20° C. In order to analyse the activity of the compounds as single agents, cells were seeded and treated with nine 2-fold serial dilutions of each compound dispensed individually directly into the cell assay plates. Effects of the compounds on cell viability were assessed after 3 days of incubation at 37° C./5% CO2 by quantification of cellular ATP levels using CellTiterGlo at 75 μL reagent/well. All the conditions were tested in triplicates. Luminescence was quantified on a multipurpose plate reader. Single agent IC50s were calculated using standard four-parametric curve fitting. IC50 is defined as the compound concentration at which the CTG signal is reduced to 50% of that measured for the vehicle (DMSO) control.
(§3) In order to analyse the activity of the compounds in combination, cells were seeded and treated with seven or eight 3.16-fold serial dilutions of each compound dispensed, either individually or in all possible permutations in a checkerboard fashion, directly into the cell assay plates as indicated in FIG. 1. Effects of the single agents as well as their checkerboard combinations on cell viability were assessed after 3 days of incubation at 37° C./5% CO2 by quantification of cellular ATP levels using CellTiterGlo at 75 μL reagent/well. For B-ALL cell lines, two independent experiments, each one performed in duplicates, were performed. For T-ALL cell lines, one experiment performed in triplicate was performed. Luminescence was quantified on a multipurpose plate reader.
(§4) Potential synergistic interactions between compound combinations were assessed using the Excess Inhibition 2D matrix according to the Loewe additivity model and are reported as Synergy Score (Lehar et al, Nat Biotechnol. 2009 July; 27(7): 659-666). All calculations were performed using Chalice TM Bioinformatics Software available in Horizon website. The doubling time indicated in Table 9 is the mean of the doubling time obtained in the different passages (in T-150 flasks) performed from the thawing of the cells to their seeding in the 96-well plates.

[4] = system: DND-41; experiment: CellTiterGlo viability, T-ALL cell line; conditions: 72 h
Method: as §1, §2, §3, §4

[5] = system: NB1; experiment: CellTiterGlo viability, neuroblastoma cell line; conditions: single agent, 2 days
Method: (§5) In addition, all media contained penicillin (100 IU/ml), streptomycin (100 μg/ml) and L-glutamine (2 mM). […] In all cases cells were thawed from frozen stocks, expanded through ≥1 passage using appropriate dilutions, counted and assessed for viability using a CASY cell counter prior to plating 150 ul/well at the densities indicated in Table 6 into 96-well plates. All cell lines were determined to be free of mycoplasma contamination in-house. Stock solutions of compounds were prepared at a concentration of 5 mM in DMSO and stored at −20° C. In order to analyse the activity of the compounds as single agents, cells were seeded and treated with nine 3.16-fold serial dilutions of each compound dispensed individually directly into the cell assay plates. […] Two independent experiments, each one performed in duplicates were performed. […]. Luminescence was quantified on a multipurpose platereader. Single agent IC50s were calculated using standard four-parametric curve fitting. […] Identical experiments were performed to assess potential synergistic interactions between compound combinations. […] All calculations were performed using Chalice TM Bioinformatics Software.

[6] = system: SH-SY5Y; experiment: CellTiterGlo viability, neuroblastoma cell line; conditions: single agent, 2 days
Method: as §5

[7] = system: LAN-6; experiment: CellTiterGlo viability, neuroblastoma cell line; conditions: for Max Inh (Compound 3: Mean of Max Inh) / IC50: LAN-6, single agent, 3 days
Method: as §5

[8] = system: SK-N-DZ; experiment: CellTiterGlo viability, neuroblastoma cell line; conditions: single agent, 3 days
Method: as §5

[9] = system: SK-N-FI; experiment: CellTiterGlo viability, neuroblastoma cell line; conditions: single agent, 2 days
Method: as §5

[10] = system: SK-N-AS; experiment: CellTiterGlo viability, neuroblastoma cell line; conditions: single agent, 3 days
Method: as §5

[11] = system: SIMA; experiment: CellTiterGlo viability, neuroblastoma cell line; conditions: single agent, 3 days
Method: as §5

[12] = system: NBL-S; experiment: CellTiterGlo viability, neuroblastoma cell line; conditions: single agent, 3 days
Method: as §5

[13] = system: SK-N-SH; experiment: CellTiterGlo viability, neuroblastoma cell line; conditions: single agent, 2 days
Method: as §5

[14] = system: SK-N-BE; experiment: CellTiterGlo viability, neuroblastoma cell line; conditions: single agent, 3 days
Method: as §5

[15] = system: Kelly; experiment: CellTiterGlo viability, neuroblastoma cell line; conditions: single agent, 2 days
Method: as §5

[16] = system: KARPAS-422; experiment: CellTiterGlo viability, DLBCL cell line; conditions: single agent, 2 days; for IC50: read-out: Abs IC50
Method: as §6, §11, §8, §9, §12

[17] = system: Toledo; experiment: CellTiterGlo viability, DLBCL cell line; conditions: for IC50 / Max Inh: Toledo, single agent, 2 days; for IC50: read-out: Abs IC50
Method: as §6, §7, §8, §9, §10

SMILES: Cl.O=C(c1cc(-c2cc3c(cc2C(=O)N2Cc4ccccc4C[C@H]2CN2CCOCC2)OCO3)n2c1CCCC2)N(c1ccccc1)c1ccc(O)cc1 [Compound 1, HCl, N-(4-hydroxyphenyl)-3-{6-[((3S)-3-(4-morpholinylmethyl)-3,4-dihydro-2(1H)-isoquinolinyl)carbonyl]-1,3-benzodioxol-5-yl}-N-phenyl-5,6,7,8-tetrahydro-1-indolizine carboxamide hydrochloride]
- IC50 ([1]; Homo sapiens, 48 h): 0.697 µM
- Max Inh [1]: 99.1%
- IC50 ([2]; Homo sapiens, 48 h): 0.0515 µM
- Max Inh [2]: 102.1%
- IC50 ([3]; Homo sapiens): 3.29 µM
- IC50 ([4]; DND41, single agent): 9 µM
- IC50 ([5]; Homo sapiens, 48 h): > 3 µM
- Max Inh (Compound 3: Mean of Max Inh) [5]: 11%
- IC50 ([6]; Homo sapiens, 48 h): > 3 µM
- Max Inh (Compound 3: Mean of Max Inh) [6]: 10%
- Max Inh (Compound 3: Mean of Max Inh) [7]: 26%
- IC50 ([7]; Neuroblastoma cell, 72 h): > 2 µM
- inhibition at 0.63 µM ([7]; Neuroblastoma cell, LAN-6 cells, each compound at 630 nM (FIG. 10, upper left panel), read-out: growth inhibition): 0%
- IC50 ([8]; Homo sapiens, 72 h): > 2 µM
- Max Inh (Compound 3: Mean of Max Inh) [8]: 10%
- IC50 ([9]; Homo sapiens, 48 h): > 3 µM
- Max Inh (Compound 3: Mean of Max Inh) [9]: 6%
- IC50 ([10]; Homo sapiens, 72 h): > 1 µM
- Max Inh (Compound 3: Mean of Max Inh) [10]: 9%
- IC50 ([11]; Neuroblastoma cell, 72 h): > 2 µM
- Max Inh (Compound 3: Mean of Max Inh) [11]: 48.5%
- IC50 ([12]; Neuroblastoma cell, 72 h): > 2 µM
- Max Inh (Compound 3: Mean of Max Inh) [12]: 10%
- IC50 ([13]; Homo sapiens, 48 h): > 3 µM
- Max Inh (Compound 3: Mean of Max Inh) [13]: 15%
- IC50 ([14]; Neuroblastoma cell, 72 h): > 2 µM
- Max Inh (Compound 3: Mean of Max Inh) [14]: 27%
- IC50 ([15]; 48 h): > 3 µM
- Max Inh (Compound 3: Mean of Max Inh) [15]: 27%
- IC50 ([16]; Homo sapiens, 48 h): 2.18 µM
- Max Inh [16]: 90.9%
- IC50 ([17]; Homo sapiens, 48 h): 0.137 µM
- Max Inh [17]: 101.9%

SMILES: COc1ccccc1-c1nccc(COc2ccccc2C[C@@H](Oc2ncnc3sc(-c4ccc(F)cc4)c(-c4ccc(OCCN5CCN(C)CC5)c(Cl)c4C)c23)C(=O)O)n1 [Compound 3, (2R)-2-{[(5Sa)-5-{3-chloro-2-methyl-4-[2-(4-methylpiperazin-1-yl)ethoxy]phenyl}-6-(4-fluorophenyl)thieno[2,3-d]pyrimidin-4-yl]oxy}-3-(2-{[2-(2-methoxyphenyl)pyrimidin-4-yl]methoxy}phenyl)propanoic acid]
- Max Inh [1]: 99.7%
- IC50 [1]: 0.0588 µM
- Max Inh [2]: 98.1%
- IC50 [2]: 0.0579 µM
- IC50 [3]: 0.026 µM
- IC50 ([4]; single agent): 7 µM
- IC50 [5]: 0.123 µM
- Max Inh (Compound 3: Mean of Max Inh) [5]: 99%
- IC50 [6]: > 3 µM
- Max Inh (Compound 3: Mean of Max Inh) [6]: 24%
- IC50 [7]: > 2 µM
- Max Inh (Compound 3: Mean of Max Inh) [7]: 17.5%
- growth inhibition ([7]; LAN-6 cells, each compound at 630 nM (FIG. 10, upper left panel)): 12%
- IC50 [8]: > 2 µM
- Max Inh (Compound 3: Mean of Max Inh) [8]: 2.5%
- IC50 [9]: > 3 µM
- Max Inh (Compound 3: Mean of Max Inh) [9]: 33%
- IC50 [10]: 0.26 µM
- Max Inh (Compound 3: Mean of Max Inh) [10]: 84%
- IC50 [11]: > 2 µM
- Max Inh (Compound 3: Mean of Max Inh) [11]: 0%
- IC50 [12]: > 2 µM
- Max Inh (Compound 3: Mean of Max Inh) [12]: 13%
- IC50 [13]: > 3 µM
- Max Inh (Compound 3: Mean of Max Inh) [13]: 40%
- IC50 [14]: > 2 µM
- Max Inh (Compound 3: Mean of Max Inh) [14]: 27%
- IC50 [15]: 0.031 µM
- Max Inh (Compound 3: Mean of Max Inh) [15]: 99%
- Max Inh [16]: 98.3%
- IC50 [16]: 0.00214 µM
- growth inhibition ([17]; Toledo cells, Compound 3 at the highest concentration tested, combination with the second lowest concentration of Compound 1 (FIG. 4B)): 46%
- Max Inh [17]: 45.8%
- IC50 [17]: ≥ 1 µM
